# Measured values published in publication PMC12785453, “Oral Fluid Concentrations and Pharmacological Effects of Clephedrone and Methylone in Humans” (International Journal of Molecular Sciences, 2025).
# Test system: healthy male participants
# Assay: Subjective effects, visual analog scales (VAS), methylone trial
# Format: in vivo, humans
# Method: Methylone pharmacology was evaluated in a study designed as a randomized, double-blind, placebo-controlled, crossover clinical trial. Four pilot studies were conducted administering methylone at oral doses of 50 (n = 3), 100 (n = 6), 150 (n = 5), and 200 mg (n = 7). Participants attended 3 experimental sessions separated by a one-week wash-out period and received two doses of methylone (one dose per experimental session) compared to placebo, except in the last pilot study in which participants received one dose of methylone, compared to MDMA and placebo. However, in this manuscript, only the results corresponding to the highest methylone doses (n = 12; 150 and 200 mg; mean dose = 179.2 mg) are presented, to enable comparison with clephedrone self-administration. Participants were recruited by word of mouth in the volunteer database of the clinical pharmacology unit.
# Methylone hydrochloride of high purity in powder form was acquired from LGC Standards (Teddington, UK) for the controlled study. The Pharmacy Department of the Hospital Universitari Germans Trias i Pujol was responsible for manufacturing, storing, and dispensing identical and opaque soft gelatin capsules containing 50 mg of methylone or a placebo (maltodextrin). Treatment consisted of 5 capsules that combined methylone and/or a placebo to reach the target dose. Details can be found in the previous article.
# Subjective effects were evaluated with visual analog scales (VAS), the short form of the Addiction Research Center Inventory (ARCI), and the Evaluation of Subjective Effects of Substances with Abuse Potential questionnaire (VESSPA-SSE). In addition, the Sensitivity to Drug Reinforcement Questionnaire (SDRQ) and a pharmacological identification class questionnaire were used in the controlled study administering methylone.
# VAS encompassed several adjectives that participants had to rate from “not at all” (0 mm) to “extremely” (100 mm) according to their sensations. This scale included 28 items: intensity, stimulated, high, good effects, bad effects, liking, changes in distances, changes in colors, changes in shapes, changes in lights, hallucinations (seeing lights or spots), hallucinations (seeing things, animals, insects, or people), changes in hearing, hallucinations (hearing sounds or voices), drowsiness, concentration, dizziness, confusion, different or changed body feeling, unreal body feeling, different surroundings, unreal surroundings, open, trust, feeling close to others, I want to be with other people, I want to hug someone, sexual desire, and sexual arousal.
# Participants included in the naturalistic clephedrone study completed VAS at baseline, 0.50, 1, 1.5, 2, 3, 4, and 5 h, and ARCI and VESSPA at baseline, 1, 2, 3, 4, and 5 h after self-administering clephedrone. In the controlled study, VAS was performed at baseline and 0.25, 0.50, 0.75, 1, 1.5, 2, 3, 4, 6, 8, 10, and 24 h, and ARCI and VESSPA at baseline and 1, 2, 3, 4, 6, 8, and 10 h after administering methylone. Participants completed SDRQ and VAS sexual desire and arousal at baseline, 1 and 10 h, and the pharmacological class identification questionnaire at 8 h.
# For statistical analysis, values of physiological (SBP, DBP, HR, and T) and subjective effects (VAS, ARCI, and VESSPA-SSE) were baseline–adjusted. Maximum effects (Emax) and the time needed to reach maximum effects (Tmax) were determined, and the area under the curve up to 5 h (AUC0–5h) for clephedrone and up to 6 h (AUC0–6h) for methylone was calculated using the trapezoidal rule. Emax and AUC values are presented as mean ± standard deviation, whereas Tmax is presented in median (range).
# To find possible significant changes through the time course compared to baseline, a Dunnett multiple comparison test was carried out to compare each time point with baseline in both drug conditions. […]
# [1] = 150 or 200 mg oral, n=12, listed as methylone
# [2] = AUC0–6h, 150 or 200 mg oral, n=12
compound,measurement,setting,value
"CNC(C)C(=O)c1ccc2c(c1)OCO2 (stereo not shown) [Methylone, 3,4-methylenedioxy-N-methylcathinone]",VAS Bad effects Emax,"150 or 200 mg oral, n=12",0.17 ± 0.58 mm
same,VAS Changes in colors Emax,"150 or 200 mg oral, n=12",0.00 ± 0.00 mm
same,VAS Changes in colors Tmax,"150 or 200 mg oral, n=12",0.0 (0.0–0.0) h
same,VAS Changes in distances Emax,"150 or 200 mg oral, n=12",1.58 ± 5.48 mm
same,VAS Changes in distances Tmax,"150 or 200 mg oral, n=12",0.0 (0.0–1.0) h
same,VAS Changes in hearing Emax,"150 or 200 mg oral, n=12",0.42 ± 1.44 mm
same,VAS Changes in hearing Tmax,"150 or 200 mg oral, n=12",0.0 (0.0–0.5) h
same,VAS Changes in lights Emax,"150 or 200 mg oral, n=12",0.00 ± 0.00 mm
same,VAS Changes in lights Tmax,"150 or 200 mg oral, n=12",0.0 (0.0–0.0) h
same,VAS Concentration Emax,"150 or 200 mg oral, n=12",2.50 ± 4.21 mm
same,VAS Confusion Emax,"150 or 200 mg oral, n=12",1.33 ± 2.57 mm
same,VAS Different or changed body feeling Emax,"150 or 200 mg oral, n=12",12.25 ± 10.68 mm
same,VAS Different surroundings Emax,"150 or 200 mg oral, n=12",0.33 ± 1.15 mm
same,VAS Dizziness Emax,"150 or 200 mg oral, n=12",3.08 ± 5.33 mm
same,VAS Drowsiness Emax,"150 or 200 mg oral, n=12",10.17 ± 16.16 mm
same,VAS Feeling close to others Emax,"150 or 200 mg oral, n=12",15.92 ± 19.97 mm
same,VAS Good effects Emax,"150 or 200 mg oral, n=12",29.75 ± 21.60 mm
same,VAS High Emax,"150 or 200 mg oral, n=12",26.67 ± 18.12 mm
same,VAS I want to be with other people Emax,"150 or 200 mg oral, n=12",17.42 ± 20.62 mm
same,VAS I want to hug someone Emax,"150 or 200 mg oral, n=12",15.33 ± 21.76 mm
same,VAS Intensity Emax,"150 or 200 mg oral, n=12",25.17 ± 18.95 mm
same,VAS Liking Emax,"150 or 200 mg oral, n=12",30.33 ± 23.26 mm
same,VAS Open Emax,"150 or 200 mg oral, n=12",15.67 ± 19.21 mm
same,VAS Sexual arousal Emax,"150 or 200 mg oral, n=12",0.50 ± 1.45 mm
same,VAS Sexual desire Emax,"150 or 200 mg oral, n=12",1.08 ± 2.07 mm
same,VAS Trust Emax,"150 or 200 mg oral, n=12",15.92 ± 20.07 mm
same,VAS Unreal body feeling Emax,"150 or 200 mg oral, n=12",0.00 ± 0.00 mm
same,VAS Unreal surroundings Emax,"150 or 200 mg oral, n=12",0.00 ± 0.00 mm
same,VAS Feeling close to others Emax,[1],> 15 mm
same,VAS Good effects Emax,[1],exceeding 20 mm
same,VAS High Emax,[1],exceeding 20 mm
same,VAS I want to be with other people Emax,[1],> 15 mm
same,VAS I want to hug someone Emax,[1],> 15 mm
same,VAS Intensity Emax,[1],exceeding 20 mm
same,VAS Liking Emax,[1],exceeding 20 mm
same,VAS Open Emax,[1],> 15 mm
same,VAS Stimulated Emax,[1],exceeding 20 mm
same,VAS Trust Emax,[1],> 15 mm
same,VAS Bad effects AUC0-5/6 h,[2],0.06 ± 0.22 mm·h
same,VAS Changes in colors AUC0-5/6 h,[2],0.00 ± 0.00 mm·h
same,VAS Changes in distances AUC0-5/6 h,[2],0.72 ± 2.49 mm·h
same,VAS Changes in hearing AUC0-5/6 h,[2],0.10 ± 0.36 mm·h
same,VAS Changes in lights AUC0-5/6 h,[2],0.00 ± 0.00 mm·h
same,VAS Concentration AUC0-5/6 h,[2],1.95 ± 3.58 mm·h
same,VAS Confusion AUC0-5/6 h,[2],1.46 ± 3.43 mm·h
same,VAS Different or changed body feeling AUC0-5/6 h,[2],7.96 ± 8.16 mm·h
same,VAS Different surroundings AUC0-5/6 h,[2],0.17 ± 0.58 mm·h
same,VAS Dizziness AUC0-5/6 h,[2],3.31 ± 6.88 mm·h
same,VAS Drowsiness AUC0-5/6 h,[2],19.98 ± 33.41 mm·h
same,VAS Feeling close to others AUC0-5/6 h,[2],14.20 ± 16.71 mm·h
same,VAS Good effects AUC0-5/6 h,[2],26.38 ± 22.79 mm·h
same,VAS High AUC0-5/6 h,[2],22.85 ± 18.54 mm·h
same,VAS I want to be with other people AUC0-5/6 h,[2],16.94 ± 19.79 mm·h
same,VAS I want to hug someone AUC0-5/6 h,[2],14.27 ± 19.51 mm·h
same,VAS Intensity AUC0-5/6 h,[2],20.30 ± 18.35 mm·h
same,VAS Liking AUC0-5/6 h,[2],28.45 ± 24.43 mm·h
same,VAS Open AUC0-5/6 h,[2],15.04 ± 17.47 mm·h
same,VAS Sexual arousal AUC0-5/6 h,[2],2.50 ± 7.23 mm·h
same,VAS Sexual desire AUC0-5/6 h,[2],5.42 ± 10.33 mm·h
same,VAS Stimulated AUC0-5/6 h,[2],20.30 ± 18.35 mm·h
same,VAS Trust AUC0-5/6 h,[2],15.08 ± 18.74 mm·h
same,VAS Unreal body feeling AUC0-5/6 h,[2],0.00 ± 0.00 mm·h
same,VAS Unreal surroundings AUC0-5/6 h,[2],0.00 ± 0.00 mm·h
same,Time of peak pharmacological effects,oral,0.75–1 h
